Experimental data as given in paper PMC7318308, “A Novel Synthetic Dual Agonistic Liposomal TLR4/7 Adjuvant Promotes Broad Immune Responses in an Influenza Vaccine With Minimal Reactogenicity” (Frontiers in Immunology, 2020).
Entries after “also recorded” stand apart in the source; their conditions may differ. Read-outs that look alike come from different tables or passages of the source.

Experiments:
mouse TLR4 = molecular target: T1, mouse TLR4 (Mus musculus, UniProt Q9JHF9+Q9QUK6); experiment: TLR4/NF-κB reporter cell assay (SEAP), HEK-Blue mTLR4; assay type: cell-based; conditions: for EC50: 20 h, 2-fold serial dilutions from 10 μM, NF-κB SEAP, read-out: EC50 on mTLR4 reporter cells; for murine TLR4 agonistic activity (in words): AUC normalized to 2B110 as 100%, Figure 1C
T1 construct: host or cells: HEK-Blue mTLR4 (HEK293-derived NF-κB/SEAP reporter cells)
T1 sequence (Q9QUK6 26-835): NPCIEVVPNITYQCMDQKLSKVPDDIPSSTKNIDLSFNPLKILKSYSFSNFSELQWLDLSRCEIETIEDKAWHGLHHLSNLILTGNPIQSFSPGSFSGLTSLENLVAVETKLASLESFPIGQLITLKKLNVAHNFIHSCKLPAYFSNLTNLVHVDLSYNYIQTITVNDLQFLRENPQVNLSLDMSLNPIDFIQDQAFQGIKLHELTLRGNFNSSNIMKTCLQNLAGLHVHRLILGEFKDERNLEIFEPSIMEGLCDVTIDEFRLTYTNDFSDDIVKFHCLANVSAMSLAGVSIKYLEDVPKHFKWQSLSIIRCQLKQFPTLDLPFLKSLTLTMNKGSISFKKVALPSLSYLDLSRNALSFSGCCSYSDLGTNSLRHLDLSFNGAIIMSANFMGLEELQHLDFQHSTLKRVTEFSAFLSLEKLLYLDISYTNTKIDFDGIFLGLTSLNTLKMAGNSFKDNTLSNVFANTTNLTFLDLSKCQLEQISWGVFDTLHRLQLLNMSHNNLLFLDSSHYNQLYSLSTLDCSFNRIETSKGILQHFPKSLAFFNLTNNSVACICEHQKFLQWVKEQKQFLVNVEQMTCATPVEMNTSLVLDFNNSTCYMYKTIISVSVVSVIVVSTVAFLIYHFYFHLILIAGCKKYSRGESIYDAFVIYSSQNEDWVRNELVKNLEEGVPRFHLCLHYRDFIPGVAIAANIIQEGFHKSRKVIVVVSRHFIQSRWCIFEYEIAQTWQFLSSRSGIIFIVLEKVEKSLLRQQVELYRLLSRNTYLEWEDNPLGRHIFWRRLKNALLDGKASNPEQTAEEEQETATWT
T1 sequence (Q9JHF9 19-160): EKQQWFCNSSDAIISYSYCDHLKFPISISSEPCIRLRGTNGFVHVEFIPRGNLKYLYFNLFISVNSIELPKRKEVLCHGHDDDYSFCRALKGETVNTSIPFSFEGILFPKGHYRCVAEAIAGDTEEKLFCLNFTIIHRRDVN
Protocol: (§1) Figure 1 Structure-activity relationship studies in TLR4 agonistic pyrimidoindoles. (A) Syntheses of C8-alkynyl and C8-alkyl analogs. (B) Syntheses of C8-aryl analogs. (C) Scatter plot of hTLR4 and mTLR4 agonistic activity in TLR4-NF-κB HEK reporter cells (HEK-Blue™ hTLR4 and HEK-Blue™ mTLR4, respectively). NF-κB inducible NF-κB SEAP levels in culture supernatants were measured according to manufacturer's protocol. The TLR4 agonistic potency was evaluated as area under the curve (AUC) calculated for dose response curve using 2-fold serial dilutions from 10 μM, and normalized to the AUC for 2B110 as 100% on both axes. […] The color of each point is based on cell viability in TLR4-NF-κB reporter cells for compounds evaluated at 5 μM concentration. Viability data was normalized to vehicle control (Vehicle OD570−650 = 0.58 ± 0.01). (D) Structures of the lead compounds with differences at C8 substitution highlighted in blue.
(§2) Titration curves of 1Z105 and derivatives were used to assess their potency in stimulating human and mouse TLR4 response using HEK NF-κB reporter cells (HEK-Blue™ hTLR4 and mTLR4, respectively). The areas under the curve for dose response curves relative to vehicle (0.5% DMSO) were normalized to the greatest activity as 100% of 2B110 for both assays (Figure 1C). The compounds were also tested for in vitro toxicity by MTT assay (Figure 1C, Supplementary Figure 1).
(§3) TLR4/NF-κB activation was assessed using HEK-Blue™ hTLR4 and HEK-Blue™ mTLR4 (InvivoGen). The cells were treated with 1Z105 and 2B182C (2-fold serial dilutions starting from 10 μM) for 20 h. NF-κB inducible secreted embryonic alkaline phosphatase (SEAP) protein in the culture supernatant was measured according to manufacturer's protocol. To evaluate cell viability, 0.5 mg/mL 3-[4,5-dimethylthiazol-2-yl]-2,5-dipheyl tetrazolium bromide (MTT, Thermo Fisher Scientific) solution was added to each well and incubated at 37°C. Six hours later, formazan crystals were lysed with lysis buffer (15% SDS and 0.12% 12 N HCl) and the absorbance was measured at 570 nm using 650 nm as a reference with a plate reader (Tecan, Switzerland).

[1] = tested on: HEK-Blue hTLR4 reporter cells; experiment: MTT cell viability, human TLR4 reporter cells; assay type: cell-based; conditions: dose response, % viability normalized to vehicle (0.5% DMSO)
Protocol: as §3
(§4) Human TLR4 reporter cells Murine TLR4 reporter cells
(§5) [Compound] 1 μM 10 [Compound] 1 μM 10
(§6) Supplementary Figure 1. Dose response curves for cell viability (toxicity) of lead compounds in human and murine TLR4-NF-κB reporter cells. Cellular toxicity evaluated by MTT assay is presented as % viability normalized to vehicle (0.5% DMSO) as 100%. While 1Z105 had minimal toxicity in both hTLR4 and mTLR4 reporter cells (HEK-BlueTM hTLR4 and HEK-BlueTM mTLR4, […]
(§7) (also on this page, place not known: %Relative (Normalized 100%) 101101 viability vehicle as to)

[2] = tested on: HEK-Blue mTLR4 reporter cells; experiment: MTT cell viability, murine TLR4 reporter cells; assay type: cell-based; conditions: dose response, % viability normalized to vehicle (0.5% DMSO)
Protocol: as §3, §4, §5, §6, §7

mBMDCs [3] = experiment: IL-12 and IL-6 production in mouse BMDCs (ELISA); assay type: cell-based
Protocol: (§8) Human PBMC (10^6 cells/mL) were treated with 5 μM 1Z105 and 2B182C overnight and the culture supernatant assessed for human IL-8 by ELISA. Mouse BMDCs (10^6 cells/mL) were incubated with serially diluted compounds (2-fold dilution from 5 μM). 0.5% DMSO was used as vehicle. IL-12 and IL-6 levels in the supernatant were measured by ELISA. ELISA was performed as previously described ([57]). Reagents and dilution factors of antibodies are described in Supplementary Table 1.

human TLR4 = molecular target: T2, human TLR4 (Homo sapiens, UniProt O00206+Q9Y6Y9); experiment: TLR4/NF-κB reporter cell assay (SEAP), HEK-Blue hTLR4; assay type: cell-based; conditions: for human TLR4 agonistic activity (in words): AUC normalized to 2B110 as 100%, Figure 1C
T2 construct: host or cells: HEK-Blue hTLR4 (HEK293-derived NF-κB/SEAP reporter cells)
Protocol: as §1, §2, §3

[4] = tested on: TLR4-NF-κB reporter cells; experiment: MTT cell viability in TLR4-NF-κB reporter cells; assay type: cell-based; conditions: 10 µM, MTT, Supplementary Figure 1
Protocol: as §1, §3

hPBMCs = experiment: IL-8 release from human PBMC (ELISA); assay type: cell-based; conditions: 5 μM, overnight; compared to 1Z105
Protocol: as §8

mBMDCs [5] = experiment: CD40 and CD86 expression on BMDCs (flow cytometry); assay type: cell-based, mouse; conditions: 1 μM, 20 h; compared to 1Z105
Protocol: Detailed information for reagents used in flow cytometry analysis are shown in Supplementary Table 2. For co-stimulatory molecules on mBMDCs, mBMDCs (10^6 cells/mL) were incubated with 1 μM 1Z105 and 2B182C for 20 h. 0.5% DMSO was uses as vehicle. After removing the supernatant, cells were washed with the stain buffer (BD Biosciences, San Diego, CA) and incubated with anti-mouse CD16/32 antibody for blocking FcR. Cells were then stained with an antibody cocktail with anti-CD40 and anti-CD86 antibodies for 20–30 min at 4°C. For analysis of lymphocytes harvested from draining lymph nodes, two antibody cocktails were prepared; (1) anti-CD3, anti-CD4, anti-PD-1, and anti-CXCR5 antibodies for Tfh cell analysis, (2) anti-CD3, anti-CD19, anti-CD95, anti-CD138, and anti-GL7 antibodies for B cell analysis. After blocking with anti-CD16/CD32 antibody, 2 × 10^6 cells were stained in each antibody cocktail. For Tfh cell analysis, after staining with primary antibodies, cells were washed with PBS, and incubated with streptavidin-PE. Cells were then washed and stained with propidium iodide to determine live/dead cells. Data were acquired using MACSQuant Analyzer 10 (Miltenyi Biotec, Germany) and analyzed using FlowJo (version 10.6.1, Becton Dickinson, Ashland, OR).

[6] = tested on: IIAV A/California/04/2009 (H1N1)pdm09 HA and NA; experiment: Prime-boost vaccination model with IIAV, serum anti-HA/anti-NA IgG ELISA; assay type: in vivo, BALB/c mice; conditions: i.m. IIAV 10 μg + adjuvant days 0 and 21, sera day 28; 1V270 1 nmol, TLR4 ligand 200 nmol/injection
[7] = Mus musculus, BMDC, read-out: EC50 for IL-6 production in mBMDCs, 2-fold dilution from 5 μM
[8] = Mus musculus, BMDC, read-out: EC50 for IL-12 production in mBMDCs, 2-fold dilution from 5 μM

T2 sequence (O00206 24-839): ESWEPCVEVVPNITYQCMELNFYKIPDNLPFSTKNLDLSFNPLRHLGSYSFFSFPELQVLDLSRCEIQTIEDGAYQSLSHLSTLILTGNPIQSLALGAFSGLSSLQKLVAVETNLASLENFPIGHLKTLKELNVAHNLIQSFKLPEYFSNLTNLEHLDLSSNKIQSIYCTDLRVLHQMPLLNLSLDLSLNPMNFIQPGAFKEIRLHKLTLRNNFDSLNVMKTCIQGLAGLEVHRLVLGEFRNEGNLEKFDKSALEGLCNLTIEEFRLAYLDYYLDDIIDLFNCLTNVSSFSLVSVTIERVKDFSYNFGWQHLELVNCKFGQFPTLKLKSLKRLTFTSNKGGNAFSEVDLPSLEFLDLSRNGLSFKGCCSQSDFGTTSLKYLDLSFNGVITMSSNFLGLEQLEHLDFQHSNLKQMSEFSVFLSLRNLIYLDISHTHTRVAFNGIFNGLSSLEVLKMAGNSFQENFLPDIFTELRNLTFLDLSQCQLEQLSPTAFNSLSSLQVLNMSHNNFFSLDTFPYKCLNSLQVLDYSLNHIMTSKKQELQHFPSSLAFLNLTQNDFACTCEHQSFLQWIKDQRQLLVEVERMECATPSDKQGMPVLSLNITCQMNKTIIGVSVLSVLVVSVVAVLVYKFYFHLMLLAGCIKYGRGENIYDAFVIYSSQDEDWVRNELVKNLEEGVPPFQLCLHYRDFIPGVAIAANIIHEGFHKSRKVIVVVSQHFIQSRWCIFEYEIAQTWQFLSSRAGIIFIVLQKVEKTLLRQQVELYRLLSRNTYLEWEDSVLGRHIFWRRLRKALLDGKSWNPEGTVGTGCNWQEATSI
T2 sequence (Q9Y6Y9 17-160 limits assumed): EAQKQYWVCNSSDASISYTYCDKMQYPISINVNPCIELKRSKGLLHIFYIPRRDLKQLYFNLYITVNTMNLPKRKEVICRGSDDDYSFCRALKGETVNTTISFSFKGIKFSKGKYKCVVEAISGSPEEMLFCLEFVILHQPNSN

SMILES: Cn1c2ccccc2c2nc(SCC(=O)NC3CCCCC3)n(-c3ccccc3)c(=O)c21 [1Z105, N-cyclohexyl-2-((5-methyl-4-oxo-3-phenyl-4,5-dihydro-3H-pyrimido[5,4-b]indol-2-yl)thio)acetamide]
- EC50 (mouse TLR4): 7490 nM
- toxicity, hTLR4 reporter cells (in words) [1]: minimal
- toxicity, mTLR4 reporter cells (in words) [2]: minimal
- EC50 (mBMDCs [3]; [7]): 630 nM
- EC50 (mBMDCs [3]; [8]): 770 nM

SMILES: Cn1c2ccc(-c3ccco3)cc2c2nc(SCC(=O)NC3CCCCC3)n(-c3ccccc3)c(=O)c21 [2B182C]
- EC50 (human TLR4; 20 h, 2-fold serial dilutions from 10 μM, NF-κB SEAP, read-out: EC50 on hTLR4 reporter cells): 1660 nM
- human TLR4 agonistic activity (in words) (human TLR4): high TLR4 stimulatory potency
- human TLR4 agonistic activity (in words) (human TLR4; listed as 8s): potency equivalent to that of compound 2B110
- fold more potent than 1Z105, hTLR4 reporter cells (human TLR4; ratio of EC50): approximately 800 fold
- EC50 (mouse TLR4): 1650 nM
- murine TLR4 agonistic activity (in words) (mouse TLR4): high TLR4 stimulatory potency
- murine TLR4 agonistic activity (in words) (mouse TLR4; listed as 8s): potency equivalent to that of compound 2B110
- fold more potent than 1Z105, mTLR4 reporter line (mouse TLR4; ratio of EC50): 4 fold
- toxicity at 10 µM (in words) [4]: exhibited toxicity
- IL-8 secretion by hPBMCs (in words) (hPBMCs): higher level of IL-8 secretion
- EC50 (mBMDCs [3]; [7]): 160 nM
- EC50 (mBMDCs [3]; [8]): 200 nM
- EC50 (mBMDCs [3]; read-out: EC50 for IL-6 production in mBMDCs, 2-fold dilution from 5 μM): 120 nM
- CD40 expression on mBMDCs (in words) (mBMDCs [5]): significantly higher expression levels
- CD86 expression on mBMDCs (in words) (mBMDCs [5]): significantly higher expression levels
- serum anti-HA IgG1 (in words) [6]: significantly increased; also recorded: higher serum anti-HA and anti-NA IgG1 levels compared to 1Z105
- serum anti-NA IgG1 (in words) [6]: significantly increased; also recorded: higher serum anti-HA and anti-NA IgG1 levels compared to 1Z105
- serum anti-NA IgG2a (in words) [6]: enhanced
